Assay: xn = mol fraction of the nth substance listed
Conditions: 100 kPa, Liquid

C1COCCO1 [1,4-dioxane] + CC#N
mass density [kg/m3]
Conditions | 288.15 K | 293.15 K | 298.15 K | 303.15 K
x1 = 0.0046 | 789.4 | 784.08 | 778.69 | 773.26
x1 = 0.0101 | 791.73 | 786.38 | 780.98 | 775.56
x1 = 0.0249 | 797.92 | 792.61 | 787.21 | 781.78
x1 = 0.0336 | 801.42 | 796.07 | 790.67 | 785.24
x1 = 0.0497 | 808.04 | 802.72 | 797.32 | 791.89
x1 = 0.0627 | 813.27 | 807.95 | 802.55 | 797.13
x1 = 0.1106 | 831.43 | 826.1 | 820.71 | 815.28
x1 = 0.1643 | 850.48 | 845.16 | 839.75 | 834.33
x1 = 0.2127 | 866.78 | 861.44 | 856.05 | 850.62
x1 = 0.2853 | 889.43 | 884.08 | 878.67 | 873.24
x1 = 0.3355 | 904 | 898.64 | 893.23 | 887.8
x1 = 0.4341 | 930.27 | 924.89 | 919.46 | 914.02
x1 = 0.4807 | 941.65 | 936.29 | 930.86 | 925.4
x1 = 0.5277 | 952.67 | 947.29 | 941.85 | 936.38
x1 = 0.5828 | 964.93 | 959.51 | 954.06 | 948.58
x1 = 0.6385 | 976.54 | 971.14 | 965.66 | 960.16
x1 = 0.6845 | 985.67 | 980.25 | 974.76 | 969.25
x1 = 0.7278 | 993.97 | 988.54 | 983.03 | 977.5
x1 = 0.777 | 1002.84 | 997.35 | 991.82 | 986.28
x1 = 0.8181 | 1010.08 | 1004.61 | 999.06 | 993.5
x1 = 0.8703 | 1018.77 | 1013.28 | 1007.7 | 1002.12
x1 = 0.9145 | 1025.86 | 1020.33 | 1014.73 | 1009.11
x1 = 0.9604 | 1032.84 | 1027.29 | 1021.66 | 1016.03
x1 = 0.9652 | 1033.57 | 1027.98 | 1022.35 | 1016.71
x1 = 0.9757 | 1035.18 | 1029.58 | 1023.93 | 1018.3
x1 = 0.9817 | 1036.07 | 1030.46 | 1024.82 | 1019.17
x1 = 0.99 | 1037.29 | 1031.66 | 1025.99 | 1020.36
x1 = 0.9954 | 1038.08 | 1032.48 | 1026.83 | 1021.18

CC(C)OC(C)C [diisopropyl ether] + CC#N
mass density [kg/m3]
Conditions | 288.15 K | 293.15 K | 298.15 K | 303.15 K
x1 = 0.0072 | 786.61 | 781.29 | 775.9 | 770.47
x1 = 0.015 | 785.8 | 780.49 | 775.1 | 769.68
x1 = 0.0247 | 784.84 | 779.54 | 774.15 | 768.74
x1 = 0.0308 | 784.29 | 778.97 | 773.59 | 768.17
x1 = 0.0381 | 783.55 | 778.25 | 772.87 | 767.46
x1 = 0.0482 | 782.56 | 777.27 | 771.89 | 766.48
x1 = 0.0991 | 777.78 | 772.47 | 767.11 | 761.72
x1 = 0.1496 | 773.32 | 768.06 | 762.72 | 757.34
x1 = 0.2511 | 765.5 | 760.24 | 754.91 | 749.55
x1 = 0.3069 | 761.73 | 756.5 | 751.18 | 745.83
x1 = 0.3507 | 758.83 | 753.58 | 748.27 | 742.93
x1 = 0.4104 | 755.28 | 750.02 | 744.74 | 739.4
x1 = 0.4513 | 752.87 | 747.67 | 742.35 | 737.04
x1 = 0.5132 | 749.57 | 744.35 | 739.06 | 733.73
x1 = 0.56 | 747.13 | 741.91 | 736.63 | 731.3
x1 = 0.6429 | 743.32 | 738.15 | 732.87 | 727.55
x1 = 0.6938 | 741.1 | 735.9 | 730.64 | 725.33
x1 = 0.76 | 738.32 | 733.12 | 727.83 | 722.53
x1 = 0.8129 | 736.2 | 731.02 | 725.76 | 720.46
x1 = 0.8449 | 735 | 729.8 | 724.53 | 719.26
x1 = 0.904 | 732.62 | 727.46 | 722.22 | 716.94
x1 = 0.9509 | 730.9 | 725.75 | 720.52 | 715.25
x1 = 0.963 | 730.42 | 725.28 | 720.05 | 714.78
x1 = 0.9685 | 730.2 | 725.06 | 719.83 | 714.56
x1 = 0.9815 | 729.68 | 724.52 | 719.32 | 714.06
x1 = 0.9887 | 729.4 | 724.27 | 719.05 | 713.79
x1 = 0.9945 | 729.15 | 724.02 | 718.81 | 713.55

C1CCOC1 [tetrahydrofuran] + CC#N
mass density [kg/m3]
Conditions | 288.15 K | 293.15 K | 298.15 K | 303.15 K
x1 = 0.0053 | 788.34 | 783 | 777.57 | 772.17
x1 = 0.0104 | 789.18 | 783.84 | 778.44 | 773.01
x1 = 0.0197 | 790.72 | 785.35 | 779.94 | 774.52
x1 = 0.0294 | 792.28 | 786.96 | 781.56 | 776.11
x1 = 0.0389 | 793.83 | 788.5 | 783.1 | 777.67
x1 = 0.0993 | 803.2 | 797.8 | 792.41 | 786.97
x1 = 0.1598 | 812.11 | 806.78 | 801.3 | 795.84
x1 = 0.1978 | 817.43 | 812.02 | 806.63 | 801.18
x1 = 0.2441 | 823.65 | 818.27 | 812.84 | 807.39
x1 = 0.2845 | 828.9 | 823.5 | 818.1 | 812.64
x1 = 0.3445 | 836.2 | 830.81 | 825.36 | 819.91
x1 = 0.4022 | 842.91 | 837.51 | 832.02 | 826.57
x1 = 0.4545 | 848.62 | 843.24 | 837.79 | 832.34
x1 = 0.4995 | 853.35 | 847.94 | 842.49 | 837.08
x1 = 0.5298 | 856.4 | 851.03 | 845.55 | 840.1
x1 = 0.5552 | 858.94 | 853.51 | 848.07 | 842.6
x1 = 0.6054 | 863.65 | 858.25 | 852.78 | 847.29
x1 = 0.6405 | 866.78 | 861.42 | 855.96 | 850.47
x1 = 0.6603 | 868.52 | 863.15 | 857.69 | 852.2
x1 = 0.6976 | 871.74 | 866.29 | 860.83 | 855.34
x1 = 0.747 | 875.76 | 870.32 | 864.86 | 859.36
x1 = 0.8003 | 879.84 | 874.36 | 868.9 | 863.41
x1 = 0.8179 | 881.06 | 875.68 | 870.22 | 864.73
x1 = 0.8537 | 883.67 | 878.23 | 872.77 | 867.28
x1 = 0.8975 | 886.63 | 881.19 | 875.76 | 870.25
x1 = 0.9502 | 890 | 884.59 | 879.13 | 873.61
x1 = 0.9671 | 890.93 | 885.55 | 880.09 | 874.59
x1 = 0.9745 | 891.4 | 886.03 | 880.56 | 875.07
x1 = 0.9854 | 892.01 | 886.65 | 881.17 | 875.7
x1 = 0.9877 | 892.14 | 886.76 | 881.29 | 875.8
x1 = 0.994 | 892.51 | 887.12 | 881.66 | 876.13
